According to patent US9061984B2 (University of Louisville Research Foundation, Inc., priority 2008, dated 2015):
Like-named read-outs stand apart in the source and are kept apart here.

System: several cell lines (Panel/Cell Line)
Test: GI50, TGI and LC50 of compound II-21 for several cell lines (Table 12)

SMILES: C(=N/Nc1ncnc2sc3c(c12)CCCC3)/c1ccccn1 [II-21]
- GI50 (48 h, Leukemia, SR, 48-h exposure): 0.368 µM
- GI50 (48 h, Melanoma, M14, 48-h exposure): 0.246 µM
- GI50 (48 h, Prostate Cancer, PC-3, 48-h exposure): 0.431 µM
- CC50 (48 h, read-out: LC50 (M), Leukemia, SR, 48-h exposure): > 0.0001 M
- CC50 (48 h, read-out: LC50 (M), Melanoma, M14, 48-h exposure): 3.34e-05 M
- CC50 (48 h, read-out: LC50 (M), Prostate Cancer, PC-3, 48-h exposure): > 0.0001 M
- TGI (Breast Cancer, BT-549, 48-h exposure): 28.7 µM
- TGI (Breast Cancer, HS 578T, 48-h exposure): 23.9 µM
- TGI (Breast Cancer, MCF7, 48-h exposure): 15.3 µM
- TGI (Breast Cancer, MDA-MB-231/ATCC, 48-h exposure): 29.7 µM
- TGI (Breast Cancer, MDA-MB-468, 48-h exposure): 0.505 µM
- TGI (Breast Cancer, T-47D, 48-h exposure): 28 µM
- TGI (CNS Cancer, SF-268, 48-h exposure): 15.1 µM
- TGI (CNS Cancer, SF-295, 48-h exposure): 12.1 µM
- TGI (CNS Cancer, SF-539, 48-h exposure): 3.84 µM
- TGI (CNS Cancer, SNB-19, 48-h exposure): 34.1 µM
- TGI (CNS Cancer, SNB-75, 48-h exposure): 14.7 µM
- TGI (CNS Cancer, U251, 48-h exposure): 12.1 µM
- TGI (Colon Cancer, COLO 205, 48-h exposure): 14.7 µM
- TGI (Colon Cancer, HCC-2998, 48-h exposure): 22.9 µM
- TGI (Colon Cancer, HCT-15, 48-h exposure): 27 µM
- TGI (Colon Cancer, HCT-116, 48-h exposure): 14.2 µM
- TGI (Colon Cancer, HT29, 48-h exposure): 15.1 µM
- TGI (Colon Cancer, KM12, 48-h exposure): 12.7 µM
- TGI (Colon Cancer, SW-620, 48-h exposure): 17.9 µM
- GI50 (Homo sapiens, 786-0, 48 h, Renal Cancer, 786-0, 48-h exposure): 0.333 µM
- CC50 (Homo sapiens, 786-0, 48 h, read-out: LC50 (M), Renal Cancer, 786-0, 48-h exposure): 4.44e-05 M
- GI50 (Homo sapiens, A498, 48 h, Renal Cancer, A498, 48-h exposure): 0.428 µM
- CC50 (Homo sapiens, A498, 48 h, read-out: LC50 (M), Renal Cancer, A498, 48-h exposure): 3.72e-05 M
- GI50 (Homo sapiens, A549, 48 h, Non-Small Cell Lung Cancer, A549/ATCC, 48-h exposure): 0.389 µM
- CC50 (Homo sapiens, A549, 48 h, read-out: LC50 (M), Non-Small Cell Lung Cancer, A549/ATCC, 48-h exposure): 7.13e-05 M
- GI50 (Homo sapiens, ACHN, 48 h, Renal Cancer, 48-h exposure): 0.313 µM
- CC50 (Homo sapiens, ACHN, 48 h, read-out: LC50 (M), Renal Cancer, ACHN, 48-h exposure): > 0.0001 M
- GI50 (Homo sapiens, BT-549, 48 h, Breast Cancer, BT-549, 48-h exposure): 0.394 µM
- CC50 (Homo sapiens, BT-549, 48 h, read-out: LC50 (M), Breast Cancer, BT-549, 48-h exposure): > 0.0001 M
- GI50 (Homo sapiens, CAKI-1, 48 h, Renal Cancer, CAKI-1, 48-h exposure): 0.313 µM
- CC50 (Homo sapiens, CAKI-1, 48 h, read-out: LC50 (M), Renal Cancer, CAKI-1, 48-h exposure): > 0.0001 M
- GI50 (Homo sapiens, CCRF-CEM, 48 h, Leukemia, 48-h exposure): 0.242 µM
- CC50 (Homo sapiens, CCRF-CEM, 48 h, read-out: LC50 (M), Leukemia, CCRF-CEM, 48-h exposure): > 0.0001 M
- GI50 (Homo sapiens, COLO 205, 48 h, Colon Cancer, COLO 205, 48-h exposure): 0.315 µM
- CC50 (Homo sapiens, COLO 205, 48 h, read-out: LC50 (M), Colon Cancer, COLO 205, 48-h exposure): 5.45e-05 M
- GI50 (Homo sapiens, DU-145, 48 h, Prostate Cancer, DU-145, 48-h exposure): 0.41 µM
- CC50 (Homo sapiens, DU-145, 48 h, read-out: LC50 (M), Prostate Cancer, DU-145, 48-h exposure): 5.16e-05 M
- GI50 (Homo sapiens, EKVX, 48 h, Non-Small Cell Lung Cancer, 48-h exposure): 0.317 µM
- CC50 (Homo sapiens, EKVX, 48 h, read-out: LC50 (M), Non-Small Cell Lung Cancer, EKVX, 48-h exposure): > 0.0001 M
- GI50 (Homo sapiens, HCC 2998, 48 h, Colon Cancer, HCC-2998, 48-h exposure): 10 µM
- CC50 (Homo sapiens, HCC 2998, 48 h, read-out: LC50 (M), Colon Cancer, HCC-2998, 48-h exposure): 5.26e-05 M
- GI50 (Homo sapiens, HCT-15, 48 h, Colon Cancer, HCT-15, 48-h exposure): 0.45 µM
- CC50 (Homo sapiens, HCT-15, 48 h, read-out: LC50 (M), Colon Cancer, HCT-15, 48-h exposure): > 0.0001 M
- GI50 (Homo sapiens, HCT-116, 48 h, Colon Cancer, HCT-116, 48-h exposure): 0.166 µM
- CC50 (Homo sapiens, HCT-116, 48 h, read-out: LC50 (M), Colon Cancer, HCT-116, 48-h exposure): 6.74e-05 M
- GI50 (Homo sapiens, HL-60, 48 h, Leukemia, HL-60(TB), 48-h exposure): 0.12 µM
- CC50 (Homo sapiens, HL-60, 48 h, read-out: LC50 (M), Leukemia, HL-60(TB), 48-h exposure): > 0.0001 M
- GI50 (Homo sapiens, HOP-62, 48 h, Non-Small Cell Lung Cancer, HOP-62, 48-h exposure): 0.395 µM
- CC50 (Homo sapiens, HOP-62, 48 h, read-out: LC50 (M), Non-Small Cell Lung Cancer, HOP-62, 48-h exposure): > 0.0001 M
- GI50 (Homo sapiens, HOP-92, 48 h, Non-Small Cell Lung Cancer, HOP-92, 48-h exposure): 0.417 µM
- CC50 (Homo sapiens, HOP-92, 48 h, read-out: LC50 (M), Non-Small Cell Lung Cancer, HOP-92, 48-h exposure): > 0.0001 M
- GI50 (Homo sapiens, HT-29, 48 h, Colon Cancer, HT29, 48-h exposure): 0.18 µM
- CC50 (Homo sapiens, HT-29, 48 h, read-out: LC50 (M), Colon Cancer, HT29, 48-h exposure): 4.49e-05 M
- GI50 (Homo sapiens, Hs-578T, 48 h, Breast Cancer, HS 578T, 48-h exposure): 0.748 µM
- CC50 (Homo sapiens, Hs-578T, 48 h, read-out: LC50 (M), Breast Cancer, HS 578T, 48-h exposure): > 0.0001 M
- GI50 (Homo sapiens, IGROV-1, 48 h, Ovarian Cancer, IGROV1, 48-h exposure): 0.45 µM
- CC50 (Homo sapiens, IGROV-1, 48 h, read-out: LC50 (M), Ovarian Cancer, IGROV1, 48-h exposure): > 0.0001 M
- GI50 (Homo sapiens, K562, 48 h, Leukemia, K-562, 48-h exposure): 0.284 µM
- CC50 (Homo sapiens, K562, 48 h, read-out: LC50 (M), Leukemia, K-562, 48-h exposure): > 0.0001 M
- GI50 (Homo sapiens, KM12, 48 h, Colon Cancer, KM12, 48-h exposure): 0.515 µM
- CC50 (Homo sapiens, KM12, 48 h, read-out: LC50 (M), Colon Cancer, KM12, 48-h exposure): 3.81e-05 M
- GI50 (Homo sapiens, LOX IMVI, 48 h, Melanoma, 48-h exposure): 0.256 µM
- CC50 (Homo sapiens, LOX IMVI, 48 h, read-out: LC50 (M), Melanoma, LOX IMVI, 48-h exposure): 3.48e-05 M
- GI50 (Homo sapiens, MCF7, 48 h, Breast Cancer, MCF7, 48-h exposure): 0.336 µM
- CC50 (Homo sapiens, MCF7, 48 h, read-out: LC50 (M), Breast Cancer, MCF7, 48-h exposure): 8e-05 M
- GI50 (Homo sapiens, MDA-MB-231, 48 h, Breast Cancer, MDA-MB-231/ATCC, 48-h exposure): 0.603 µM
- CC50 (Homo sapiens, MDA-MB-231, 48 h, read-out: LC50 (M), Breast Cancer, MDA-MB-231/ATCC, 48-h exposure): > 0.0001 M
- GI50 (Homo sapiens, MDA-MB-435, 48 h, Melanoma, MDA-MB-435, 48-h exposure): 0.477 µM
- CC50 (Homo sapiens, MDA-MB-435, 48 h, read-out: LC50 (M), Melanoma, MDA-MB-435, 48-h exposure): > 0.0001 M
- GI50 (Homo sapiens, MDA-MB-468, 48 h, Breast Cancer, MDA-MB-468, 48-h exposure): 0.2 µM
- CC50 (Homo sapiens, MDA-MB-468, 48 h, read-out: LC50 (M), Breast Cancer, MDA-MB-468, 48-h exposure): 4.1e-05 M
- GI50 (Homo sapiens, MOLT-4, 48 h, Leukemia, MOLT-4, 48-h exposure): 0.261 µM
- CC50 (Homo sapiens, MOLT-4, 48 h, read-out: LC50 (M), Leukemia, MOLT-4, 48-h exposure): > 0.0001 M
- GI50 (Homo sapiens, Malme-3M, 48 h, Melanoma, 48-h exposure): 0.275 µM
- CC50 (Homo sapiens, Malme-3M, 48 h, read-out: LC50 (M), Melanoma, MALME-3M, 48-h exposure): 5.14e-05 M
- GI50 (Homo sapiens, NCI-H23, 48 h, Non-Small Cell Lung Cancer, NCI-H23, 48-h exposure): 0.705 µM
- CC50 (Homo sapiens, NCI-H23, 48 h, read-out: LC50 (M), Non-Small Cell Lung Cancer, NCI-H23, 48-h exposure): > 0.0001 M
- GI50 (Homo sapiens, NCI-H226, 48 h, Non-Small Cell Lung Cancer, NCI-H226, 48-h exposure): 0.385 µM
- CC50 (Homo sapiens, NCI-H226, 48 h, read-out: LC50 (M), Non-Small Cell Lung Cancer, NCI-H226, 48-h exposure): > 0.0001 M
- GI50 (Homo sapiens, NCI-H322M, 48 h): 0.216 µM
- CC50 (Homo sapiens, NCI-H322M, 48 h, read-out: LC50 (M)): > 0.0001 M
- GI50 (Homo sapiens, NCI-H460, 48 h, Non-Small Cell Lung Cancer, NCI-H460, 48-h exposure): 0.304 µM
- CC50 (Homo sapiens, NCI-H460, 48 h, read-out: LC50 (M), Non-Small Cell Lung Cancer, NCI-H460, 48-h exposure): 3.11e-05 M
